{"source": "paper PMC3409373", "about": "“Ellagic acid, a phenolic compound, exerts anti-angiogenesis effects via VEGFR-2 signaling pathway in breast cancer” (Breast Cancer Research and Treatment, 2012)", "target": "T1, VEGFR-2 (Homo sapiens, UniProt P35968)", "T1 construct": "gene KDR", "T1 sequence (P35968 20-1356)": "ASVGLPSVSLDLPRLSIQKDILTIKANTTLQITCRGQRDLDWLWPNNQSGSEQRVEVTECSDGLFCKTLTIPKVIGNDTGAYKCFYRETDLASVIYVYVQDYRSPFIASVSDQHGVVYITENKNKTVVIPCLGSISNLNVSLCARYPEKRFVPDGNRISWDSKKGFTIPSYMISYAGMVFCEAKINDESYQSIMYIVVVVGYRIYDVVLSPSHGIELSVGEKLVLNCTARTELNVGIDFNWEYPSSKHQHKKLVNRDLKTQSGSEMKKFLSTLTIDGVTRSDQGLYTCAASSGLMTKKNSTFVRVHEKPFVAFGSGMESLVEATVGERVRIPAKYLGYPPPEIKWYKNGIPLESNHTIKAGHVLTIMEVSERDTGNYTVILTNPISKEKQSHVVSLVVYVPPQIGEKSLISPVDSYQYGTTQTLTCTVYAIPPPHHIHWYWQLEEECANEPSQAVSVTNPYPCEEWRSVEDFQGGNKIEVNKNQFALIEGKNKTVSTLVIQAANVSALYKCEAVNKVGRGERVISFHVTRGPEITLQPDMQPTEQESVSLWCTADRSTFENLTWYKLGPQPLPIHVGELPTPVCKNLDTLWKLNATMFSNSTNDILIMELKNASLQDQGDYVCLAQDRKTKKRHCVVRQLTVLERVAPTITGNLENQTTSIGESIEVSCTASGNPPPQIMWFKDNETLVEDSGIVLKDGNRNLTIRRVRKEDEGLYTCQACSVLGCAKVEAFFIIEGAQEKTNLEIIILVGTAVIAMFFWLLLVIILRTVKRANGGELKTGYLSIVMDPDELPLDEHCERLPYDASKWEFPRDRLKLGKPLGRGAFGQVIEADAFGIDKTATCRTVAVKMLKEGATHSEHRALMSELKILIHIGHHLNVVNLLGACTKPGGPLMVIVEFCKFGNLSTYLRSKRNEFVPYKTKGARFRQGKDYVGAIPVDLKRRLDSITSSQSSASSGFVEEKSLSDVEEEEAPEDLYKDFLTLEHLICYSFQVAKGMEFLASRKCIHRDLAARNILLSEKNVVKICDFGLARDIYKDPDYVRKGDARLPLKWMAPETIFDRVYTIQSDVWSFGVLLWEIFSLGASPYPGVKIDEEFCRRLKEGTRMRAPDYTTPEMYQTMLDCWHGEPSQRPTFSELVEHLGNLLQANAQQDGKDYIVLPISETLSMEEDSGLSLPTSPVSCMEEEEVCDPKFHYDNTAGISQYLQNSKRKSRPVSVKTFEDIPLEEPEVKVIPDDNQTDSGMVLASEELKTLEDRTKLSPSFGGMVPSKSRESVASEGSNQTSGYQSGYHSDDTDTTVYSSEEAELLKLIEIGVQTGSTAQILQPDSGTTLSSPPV", "assay": "ELISA-based tyrosine kinase assay with VEGFR-2 (Upstate), poly-Glu-Tyr substrate, Mg2+ and ATP", "assay_type": "biochemical"}
{"smiles": "O=c1oc2c(O)c(O)cc3c(=O)oc4c(O)c(O)cc1c4c23", "note": "[ellagic acid, 4,4′,5,5′6, 6′-hexahydroxydiphenic acid 2,6,2′6′-dilactone]", "values": [{"measurement": "IC50", "value": "~25.8", "unit": "nM"}]}
